Measured values reported in US20250302832A1, “PYRAZINE DERIVATIVES AND USES THEREOF” (FOGHORN THERAPEUTICS INC., priority 2022, published 2025).

Columns and labels:
[1] = biological target: T1, HiBit-BRG1 fusion protein (Homo sapiens, UniProt P51532); test: HiBiT-BRG1 cell-based degradation assay (Nano-Glo HiBiT lytic detection, 24 h); conditions: HeLa cell line expressing HiBit-BRG1 and LgBit; for Dmax: read-out: BRG1 HiBit Degradation Maximum (%); for DC50: read-out: BRMG1 HiBit Degradation IC50
T1 construct: expressed in transfected cells
T1 sequence (P51532 whole entry, the tested form may be a part): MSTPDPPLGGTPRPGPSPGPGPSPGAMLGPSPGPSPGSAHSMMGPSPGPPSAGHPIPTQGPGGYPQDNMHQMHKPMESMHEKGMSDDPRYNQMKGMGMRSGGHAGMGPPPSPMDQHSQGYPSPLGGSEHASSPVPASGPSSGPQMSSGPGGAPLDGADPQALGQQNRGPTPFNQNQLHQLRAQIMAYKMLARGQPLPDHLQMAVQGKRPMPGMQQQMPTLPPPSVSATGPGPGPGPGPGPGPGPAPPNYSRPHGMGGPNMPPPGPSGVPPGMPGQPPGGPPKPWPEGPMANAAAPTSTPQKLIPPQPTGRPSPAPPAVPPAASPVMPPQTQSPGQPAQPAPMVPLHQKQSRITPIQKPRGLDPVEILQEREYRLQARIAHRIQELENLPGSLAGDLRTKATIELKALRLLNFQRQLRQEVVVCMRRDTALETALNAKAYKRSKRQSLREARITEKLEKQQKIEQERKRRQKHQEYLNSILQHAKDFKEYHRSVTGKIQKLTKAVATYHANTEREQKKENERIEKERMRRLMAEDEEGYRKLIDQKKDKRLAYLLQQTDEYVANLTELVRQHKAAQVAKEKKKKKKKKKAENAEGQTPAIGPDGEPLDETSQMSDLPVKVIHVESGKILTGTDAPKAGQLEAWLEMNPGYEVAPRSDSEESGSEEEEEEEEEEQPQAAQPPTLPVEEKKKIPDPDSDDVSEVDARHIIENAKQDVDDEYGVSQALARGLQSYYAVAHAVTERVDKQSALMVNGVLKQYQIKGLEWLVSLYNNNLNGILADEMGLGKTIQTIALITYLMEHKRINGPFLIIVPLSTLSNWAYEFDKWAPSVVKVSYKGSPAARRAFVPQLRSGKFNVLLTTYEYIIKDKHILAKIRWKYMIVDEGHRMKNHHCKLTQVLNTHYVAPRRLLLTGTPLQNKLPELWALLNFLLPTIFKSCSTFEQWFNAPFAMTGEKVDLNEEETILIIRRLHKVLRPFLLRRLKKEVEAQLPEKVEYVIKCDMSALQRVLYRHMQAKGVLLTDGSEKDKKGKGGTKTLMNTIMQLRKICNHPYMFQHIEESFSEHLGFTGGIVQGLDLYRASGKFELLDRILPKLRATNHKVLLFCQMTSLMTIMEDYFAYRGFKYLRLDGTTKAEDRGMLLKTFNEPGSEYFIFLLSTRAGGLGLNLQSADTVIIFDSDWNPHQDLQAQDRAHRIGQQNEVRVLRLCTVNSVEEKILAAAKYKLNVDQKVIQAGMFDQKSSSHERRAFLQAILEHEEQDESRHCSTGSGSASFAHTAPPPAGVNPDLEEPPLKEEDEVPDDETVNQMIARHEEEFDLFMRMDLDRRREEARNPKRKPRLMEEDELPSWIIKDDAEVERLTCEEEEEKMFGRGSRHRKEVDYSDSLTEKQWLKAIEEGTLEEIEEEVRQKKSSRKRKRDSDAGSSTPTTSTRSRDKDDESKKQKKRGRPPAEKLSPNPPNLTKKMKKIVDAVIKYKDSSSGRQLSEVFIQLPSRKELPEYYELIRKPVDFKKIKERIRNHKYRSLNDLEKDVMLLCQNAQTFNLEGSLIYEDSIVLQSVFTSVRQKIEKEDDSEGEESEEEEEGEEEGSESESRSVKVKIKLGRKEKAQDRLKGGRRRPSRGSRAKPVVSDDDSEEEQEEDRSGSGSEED
Procedure, shortened: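 HeLa cells stably expressing HiBiT-BRG1 and LgBiT, 5000 per well, compound-treated 24 h, equilibrated 15 min at room temperature, then lysed with LgBiT-containing Nano-Glo HiBiT lytic reagent and luminescence read. % degradation normalised between DMSO (high control) and 2 μM reference BRM/BRG1 degrader (low control).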

HiBit-BRM fusion protein = biological target: T2, HiBit-BRM fusion protein (Homo sapiens, UniProt P51531); test: HiBiT-BRM cell-based degradation assay (Nano-Glo HiBiT lytic detection, 24 h); conditions: HeLa cell line expressing HiBiT-BRM; for DC50: read-out: BRM HiBit Degradation IC50
T2 construct: expressed in transfected cells
T2 sequence (P51531 whole entry, the tested form may be a part): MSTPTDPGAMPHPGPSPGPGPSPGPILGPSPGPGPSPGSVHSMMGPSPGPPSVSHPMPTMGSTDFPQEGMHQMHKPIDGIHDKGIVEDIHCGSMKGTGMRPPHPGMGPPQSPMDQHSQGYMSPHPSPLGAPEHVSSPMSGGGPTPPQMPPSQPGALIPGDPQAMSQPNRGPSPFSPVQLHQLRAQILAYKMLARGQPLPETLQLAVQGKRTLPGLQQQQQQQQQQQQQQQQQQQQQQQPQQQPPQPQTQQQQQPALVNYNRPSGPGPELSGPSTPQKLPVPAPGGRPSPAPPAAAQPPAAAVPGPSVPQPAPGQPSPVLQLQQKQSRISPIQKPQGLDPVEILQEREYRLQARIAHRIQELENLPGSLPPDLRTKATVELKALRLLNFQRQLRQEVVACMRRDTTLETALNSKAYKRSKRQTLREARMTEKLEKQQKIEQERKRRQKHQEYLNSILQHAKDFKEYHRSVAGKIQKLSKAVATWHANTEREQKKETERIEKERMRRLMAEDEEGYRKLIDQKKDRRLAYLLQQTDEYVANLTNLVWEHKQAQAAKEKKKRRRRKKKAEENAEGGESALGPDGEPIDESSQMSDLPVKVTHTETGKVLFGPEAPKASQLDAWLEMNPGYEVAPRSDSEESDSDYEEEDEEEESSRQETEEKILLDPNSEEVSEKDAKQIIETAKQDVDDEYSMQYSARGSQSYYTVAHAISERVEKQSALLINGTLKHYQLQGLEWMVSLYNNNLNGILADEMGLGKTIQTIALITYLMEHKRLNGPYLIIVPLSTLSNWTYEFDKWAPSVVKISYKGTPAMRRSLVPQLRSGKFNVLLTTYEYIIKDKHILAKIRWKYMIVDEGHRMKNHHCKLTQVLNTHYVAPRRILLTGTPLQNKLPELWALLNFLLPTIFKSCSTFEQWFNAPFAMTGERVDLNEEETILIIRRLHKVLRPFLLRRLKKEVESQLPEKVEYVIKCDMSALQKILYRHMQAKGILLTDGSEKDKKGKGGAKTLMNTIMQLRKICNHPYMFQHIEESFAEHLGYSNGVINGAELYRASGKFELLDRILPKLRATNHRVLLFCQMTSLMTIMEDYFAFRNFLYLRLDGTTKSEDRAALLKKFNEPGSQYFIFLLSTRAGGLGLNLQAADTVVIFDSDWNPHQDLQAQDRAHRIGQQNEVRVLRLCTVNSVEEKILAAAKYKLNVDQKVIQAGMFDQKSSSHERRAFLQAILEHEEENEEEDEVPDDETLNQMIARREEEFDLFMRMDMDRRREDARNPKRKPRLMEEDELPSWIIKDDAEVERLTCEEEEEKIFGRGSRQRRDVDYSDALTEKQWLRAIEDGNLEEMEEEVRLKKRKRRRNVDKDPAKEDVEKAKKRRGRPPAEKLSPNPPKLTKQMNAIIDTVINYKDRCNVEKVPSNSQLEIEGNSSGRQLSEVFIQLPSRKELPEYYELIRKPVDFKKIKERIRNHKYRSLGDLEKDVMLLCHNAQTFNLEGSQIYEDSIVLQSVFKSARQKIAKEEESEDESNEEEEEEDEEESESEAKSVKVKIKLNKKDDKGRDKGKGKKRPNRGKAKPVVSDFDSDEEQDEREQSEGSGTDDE
Procedure, shortened: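 Stable HeLa HiBiT-BRM cells treated 24 h with compounds (10-point 3-fold dilutions, 30 μM final top dose, duplicate). HiBiT levels read by Nano-Glo lytic luminescence; % degradation normalised to DMSO (high control) and 2 μM reference BRM/BRG1 degrader (low control).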

Row | Dmax [1] [%] | DC50 (HiBit-BRM fusion protein) [nM] | DC50 [1] [nM] | SMILES | BRM HiBit Degradation Maximum (%) (HiBit-BRM fusion protein)
1 | < 50 | < 10 | – | Cc1ncsc1-c1ccc([C@H](C)NC(=O)[C@@H]2C[C@@H](O)CN2C(=O)[C@@H](c2cc(N3CC4(CC(c5cc6nnc(-c7ccccc7O)cc6n5C5CCC5)C4)C3)no2)C(C)C)cc1 [Compound 105, (2S,4R)-1-[(2R)-2-(3-{6-[5-cyclobutyl-3-(2-hydroxyphenyl)pyrrolo[3,2-c]pyridazin-6-yl]-2-azaspiro[3.3]heptan-2-yl}-1,2-oxazol-5-yl)-3-methylbutanoyl]-4-hydroxy-N-[(1S)-1-[4-(4-methyl-1,3-thiazol-5-yl)phenyl]ethyl]pyrrolidine-2-carb oxamide] | A (“A” indicates maximum degradation ≥75%)
2 | < 50 | > 10 | – | Cc1ncsc1-c1ccc([C@H](C)NC(=O)[C@@H]2C[C@@H](O)CN2C(=O)[C@@H](c2cc(-c3cnc(N4CC[C@@H](c5cc6nnc(-c7cccc(F)c7O)cc6n5C5CC5)C4)nc3)no2)C(C)C)cc1 [Compound 106, (2S,4R)-1-((R)-2-(3-(2-((R)-3-(5-cyclopropyl-3-(3-fluoro-2-hydroxyphenyl)-5H-pyrrolo[3,2-c]pyridazin-6-yl)pyrrolidin-1-yl)pyrimidin-5-yl)isoxazol-5-yl)-3-methylbutanoyl)-4-hydroxy-N-((S)-1-(4-(4-methylthiazol-5-yl)phenyl)ethyl)pyrrolidine-2-carboxamide] | B (“B” indicates maximum degradation ≥50%)
3 | < 50 | > 10 | – | Cc1cc(-c2cc([C@H](C(=O)N3C[C@H](O)C[C@H]3C(=O)N[C@@H](C)c3ccc(-c4scnc4C)cc3)C(C)C)on2)cnc1N1CC[C@@H](c2cc3nnc(-c4ccccc4O)cc3n2C2CC2)C1 [Compound 107, (2S,4R)-1-((R)-2-(3-(6-((R)-3-(5-cyclopropyl-3-(2-hydroxyphenyl)-5H-pyrrolo[3,2-c]pyridazin-6-yl)pyrrolidin-1-yl)-5-methylpyridin-3-yl)isoxazol-5-yl)-3-methylbutanoyl)-4-hydroxy-N-((S)-1-(4-(4-methylthiazol-5-yl)phenyl)ethyl)pyrrolidine-2-carboxamide] | A (“A” indicates maximum degradation ≥75%)
4 | < 50 | > 10 | – | Cc1ncsc1-c1ccc([C@H](C)NC(=O)[C@@H]2C[C@@H](O)CN2C(=O)[C@@H](c2cc(-c3cnc(N4CC[C@H](c5cc6nnc(-c7cc(F)cc(F)c7O)cc6n5C5CC5)C4)nc3)no2)C(C)C)cc1 [Compound 108, (2S,4R)-1-((R)-2-(3-(2-((S)-3-(5-cyclopropyl-3-(3,5-difluoro-2-hydroxyphenyl)-5H-pyrrolo[3,2-c]pyridazin-6-yl)pyrrolidin-1-yl)pyrimidin-5-yl)isoxazol-5-yl)-3-methylbutanoyl)-4-hydroxy-N-((S)-1-(4-(4-methylthiazol-5-yl)phenyl)ethyl)pyrrolidine-2-carboxamide] | B (“B” indicates maximum degradation ≥50%)
5 | < 50 | < 10 | – | Cc1ncsc1-c1ccc([C@H](C)NC(=O)[C@@H]2C[C@@H](O)CN2C(=O)[C@@H](c2cc(-c3cnc(N4CC[C@H](c5cc6nnc(-c7cccc(F)c7O)cc6n5C5CC5)C4)nc3)no2)C(C)C)cc1 [Compound 109, (2S,4R)-1-((R)-2-(3-(2-((S)-3-(5-cyclopropyl-3-(3-fluoro-2-hydroxyphenyl)-5H-pyrrolo[3,2-c]pyridazin-6-yl)pyrrolidin-1-yl)pyrimidin-5-yl)isoxazol-5-yl)-3-methylbutanoyl)-4-hydroxy-N-((S)-1-(4-(4-methylthiazol-5-yl)phenyl)ethyl)pyrrolidine-2-carboxamide] | A (“A” indicates maximum degradation ≥75%)
6 | < 50 | < 10 | – | Cc1ncsc1-c1ccc([C@H](C)NC(=O)[C@@H]2C[C@@H](O)CN2C(=O)[C@@H](c2cc(-c3cnc(N4CC[C@@H](c5cc6nnc(-c7cc(F)cc(F)c7O)cc6n5C5CC5)C4)nc3)no2)C(C)C)cc1 [Compound 111, (2S,4R)-1-((R)-2-(3-(2-((R)-3-(5-cyclopropyl-3-(3,5-difluoro-2-hydroxyphenyl)-5H-pyrrolo[3,2-c]pyridazin-6-yl)pyrrolidin-1-yl)pyrimidin-5-yl)isoxazol-5-yl)-3-methylbutanoyl)-4-hydroxy-N-((S)-1-(4-(4-methylthiazol-5-yl)phenyl)ethyl)pyrrolidine-2-carboxamide] | A (“A” indicates maximum degradation ≥75%)
7 | > 50 | > 10 | > 10 | Cc1ncsc1-c1ccc([C@H](C)NC(=O)[C@@H]2C[C@@H](O)CN2C(=O)[C@@H](c2cc(-c3cnc(N4CC[C@H](c5cc6nnc(-c7ccccc7O)cc6n5C5CCC5)C4)nc3)no2)C(C)C)cc1 [Compound 112, (2S,4R)-1-((R)-2-(3-(2-((S)-3-(5-cyclobutyl-3-(2-hydroxyphenyl)-5H-pyrrolo[3,2-c]pyridazin-6-yl)pyrrolidin-1-yl)pyrimidin-5-yl)isoxazol-5-yl)-3-methylbutanoyl)-4-hydroxy-N-((S)-1-(4-(4-methylthiazol-5-yl)phenyl)ethyl)pyrrolidine-2-carboxamide] | A (“A” indicates maximum degradation ≥75%)
8 | > 50 | < 10 | > 10 | Cc1ncsc1-c1ccc([C@H](C)NC(=O)[C@@H]2C[C@@H](O)CN2C(=O)[C@@H](c2cc(N3CCC4(CC3)CC(c3cc5nnc(-c6ccccc6O)cc5n3C)C4)no2)C(C)C)cc1 [Compound 113, (2S,4R)-4-hydroxy-1-((R)-2-(3-(2-(3-(2-hydroxyphenyl)-5-methyl-5H-pyrrolo[3,2-c]pyridazin-6-yl)-7-azaspiro[3.5]nonan-7-yl)isoxazol-5-yl)-3-methylbutanoyl)-N-((S)-1-(4-(4-methylthiazol-5-yl)phenyl)ethyl)pyrrolidine-2-carboxamide] | A (“A” indicates maximum degradation ≥75%)
9 | > 75 | < 10 | > 10 | Cc1ncsc1-c1ccc([C@H](C)NC(=O)[C@@H]2C[C@@H](O)CN2C(=O)[C@@H](c2cc(-c3cnc(N4CC[C@@H](c5cc6nnc(-c7ccccc7O)cc6n5CC5CC5)C4)nc3)no2)C(C)C)cc1 [Compound 114, (2S,4R)-1-((R)-2-(3-(2-((R)-3-(5-(cyclopropylmethyl)-3-(2-hydroxyphenyl)-5H-pyrrolo[3,2-c]pyridazin-6-yl)pyrrolidin-1-yl)pyrimidin-5-yl)isoxazol-5-yl)-3-methylbutanoyl)-4-hydroxy-N-((S)-1-(4-(4-methylthiazol-5-yl)phenyl)ethyl)pyrrolidine-2-carboxamide] | A (“A” indicates maximum degradation ≥75%)
10 | > 50 | < 10 | > 10 | Cc1ncsc1-c1ccc([C@H](C)NC(=O)[C@@H]2C[C@@H](O)CN2C(=O)[C@@H](c2cc(-c3cnc(N4CC[C@H](c5cc6nnc(-c7ccccc7O)cc6n5CC5CC5)C4)nc3)no2)C(C)C)cc1 [Compound 115, (2S,4R)-1-((R)-2-(3-(2-((S)-3-(5-(cyclopropylmethyl)-3-(2-hydroxyphenyl)-5H-pyrrolo[3,2-c]pyridazin-6-yl)pyrrolidin-1-yl)pyrimidin-5-yl)isoxazol-5-yl)-3-methylbutanoyl)-4-hydroxy-N-((S)-1-(4-(4-methylthiazol-5-yl)phenyl)ethyl)pyrrolidine-2-carboxamide] | A (“A” indicates maximum degradation ≥75%)
11 | < 50 | > 10 | – | Cc1ncsc1-c1ccc([C@H](C)NC(=O)[C@@H]2C[C@@H](O)CN2C(=O)[C@@H](c2cc(-c3ccnc(N4CC[C@@H](c5cc6nnc(-c7ccccc7O)cc6n5C5CC5)C4)n3)no2)C(C)C)cc1 [Compound 116, (2S,4R)-1-[(2R)-2-(3-{2-[(3R)-3-[5-cyclopropyl-3-(2-hydroxyphenyl)pyrrolo[3,2-c]pyridazin-6-yl]pyrrolidin-1-yl]pyrimidin-4-yl}-1,2-oxazol-5-yl)-3-methylbutanoyl]-4-hydroxy-N-[(1S)-1-[4-(4-methyl-1,3-thiazol-5-yl)phenyl]ethyl]pyrrolidine-2-carboxamide] | A (“A” indicates maximum degradation ≥75%)
12 | < 50 | < 10 | – | Cc1ncsc1-c1ccc([C@H](C)NC(=O)[C@@H]2C[C@@H](O)CN2C(=O)[C@@H](c2cc(N3CCC4(CC3)CC(c3cc5nnc(-c6ccccc6O)cc5n3C3CC3)C4)no2)C(C)C)cc1 [Compound 117, (2S,4R)-1-((R)-2-(3-(2-(5-cyclopropyl-3-(2-hydroxyphenyl)-5H-pyrrolo[3,2-c]pyridazin-6-yl)-7-azaspiro[3.5]nonan-7-yl)isoxazol-5-yl)-3-methylbutanoyl)-4-hydroxy-N-((S)-1-(4-(4-methylthiazol-5-yl)phenyl)ethyl)pyrrolidine-2-carboxamide] | A (“A” indicates maximum degradation ≥75%)
13 | < 50 | > 10 | – | CC(C)C(C(=O)N1C[C@H](O)C[C@H]1C(=O)NC1CCC1)c1cc(N2CC3(CC(c4cc5nnc(-c6ccccc6O)cc5n4C4CCC4)C3)C2)no1 (stereo partly drawn) [Compound 118, (2S,4R)-N-cyclobutyl-1-(2-(3-(6-(5-cyclobutyl-3-(2-hydroxyphenyl)-5H-pyrrolo[3,2-c]pyridazin-6-yl)-2-azaspiro[3.3]heptan-2-yl)isoxazol-5-yl)-3-methylbutanoyl)-4-hydroxypyrrolidine-2-carboxamide] | A (“A” indicates maximum degradation ≥75%)
